Laboratory results as given in ChEMBL document CHEMBL3507680, “University of Dundee, Gates Library screen for HepG2 cell viability”.

Assay: Human HepG2 cell viability assay in 384 well format
Format: toxicity, cell-based
Design: dose 125 nL, time 70.5 hour; cytotoxicity at 70.5 h: concentration not given beside the values
Settings: HepG2 cells, read-out: Inhibition

SMILES	cytotoxicity at 70.5 h [%]
O=C(Nc1ccnn1C1CCCC1)c1ccc(NC2CC2)nc1	3.1
c1coc(-c2nnc(CN(Cc3cccs3)CC3CCCO3)o2)c1 (configuration not stated)	-6.66
COc1ccc(F)cc1CN1CCCC(c2cc(C(N)=O)[nH]n2)C1 (configuration not stated)	-10.6
CNC(=O)C1CN(C(C)C)CCN1c1nc(C)cc(C)n1 (configuration not stated)	-10.7
COc1cccc(S(=O)(=O)CCN2CCCN(C(C)=O)CC2)c1	0.259
Cc1cc2c(N3CCCC(OCc4cccnc4)C3)ncnc2s1 (configuration not stated)	-9.75
Cc1nc(CNCC(C)c2nc3ccccc3o2)cs1 (configuration not stated)	0.552
O=C(NC1CCS(=O)(=O)C1)N1CCN(c2cnccn2)CC1 (configuration not stated)	-7.1
CCOc1ccc(OCc2nc3c(c(=O)[nH]2)CCNC3)cc1	-13.5
O=C(CCn1cc(Cl)cn1)N1CCCC(O)(CO)CC1 (configuration not stated)	-4.26
Cn1cnnc1C1CCCN(c2nc3ccccc3o2)C1 (configuration not stated)	0.708
Cc1nc(N2CCCC(C)C2)nc2cc(S(C)(=O)=O)ccc12 (configuration not stated)	-2.18
CC1(C)OC(=O)N(CCCC(=O)c2ccc(F)cc2)C1=O	-16.8
COCCC(=O)N1CCC2(CCCN(Cc3cc(OC)ccc3F)C2)C1 (configuration not stated)	-6.14
O=C(COc1cccnc1)N1CCOC(C(F)(F)F)C1 (configuration not stated)	-0.535
O=c1cc(-c2ccncc2)nc(-c2ccc(CN3CC[C@@H](O)C3)cc2)[nH]1	-11.3
Cn1cccc1-c1cc(C(=O)NCCCc2csc(N)n2)[nH]n1	18.4
Cc1ncc2c(n1)CN(Cc1nnc(Cc3ccccc3)o1)CC2	-3.37
O=C(c1ccno1)N1CC2(CCC(C(=O)N3CCCC3)O2)C1 (configuration not stated)	-14.7
CN(C)CCN1CCOCC2(CCCN(C(=O)c3cccn3C)C2)C1 (configuration not stated)	0.0252
CCC1CN(C)c2ccccc2CN1C(=O)Nc1ccccc1OC (configuration not stated)	16.8

SMILES	cytotoxicity at 70.5 h [%]
COCCN(CCOC)c1ncccc1Cl	-6.57
COc1ccccc1C1(CNc2snc(Cl)c2C#N)CCOCC1	-4.49
Cc1ccc(CN2CCc3nnc(COCCN(C)C)n3CC2)o1	-11.2
Cc1nc(C2CCCN2CC(=O)NCCOc2cccc(F)c2)no1 (configuration not stated)	19.2
CSC(C)CC(=O)N1CCC(n2ccnn2)CC1 (configuration not stated)	-8.7
CC(C)NC(=O)[C@H]1C[C@@H]2[C@@H](C1)OCCN2CC1CC1	-3.31
C[C@@H](CO)NC(=O)c1ccc2nc(NS(C)(=O)=O)sc2c1	-2.43
c1cncc(N2CCC(c3ccncc3)CC2)c1	3.31
CC(C)Nc1ncnc2c1CCN(c1cc(C(F)(F)F)ncn1)CC2	3.48
CCN1CC2(CCN(C(=O)C(C)Oc3ccc(F)cc3F)CC2)OC1=O (configuration not stated)	-1.13
c1cnn(CC2CN(CCc3ccncc3)CCO2)c1 (configuration not stated)	-4.36
Cn1/c(=N/C(=O)CSCC(=O)Nc2nccs2)sc2ccccc21	2.4
CN(C)C(CNC(=O)c1ccnc(-n2cncn2)c1)c1ccccc1 (configuration not stated)	-9.4
Cc1nc(COc2ccc(CNCC3CN(C)CCO3)cc2)cs1 (configuration not stated)	20.1
NC(=O)C1CCN(c2cncc(-n3cccn3)n2)CC1	6.36
COc1ccc(C(N)=O)cc1NCc1ncc(C(C)(C)C)o1	-81.1
CC(C)Cc1cc(NC(=O)c2n[nH]c3ccccc23)n(C)n1	-5.98
Cc1ccc(S(=O)(=O)Nc2cccnc2O)cc1C	-0.331
O=S(=O)(CC1CCCCO1)Nc1cnn(CC(F)F)c1 (configuration not stated)	-7.78
O=c1c(Cc2ccccc2)c(O)ccn1CCc1ccccc1	-3.9
c1cncc(OC[C@@]23CCC[C@@H]2CN(CC2CCOCC2)C3)c1	-1.42

SMILES	cytotoxicity at 70.5 h [%]
CC(=O)N(Cc1noc(C2CC2)n1)C1CCN(CC2CCOCC2)C1 (configuration not stated)	22.1
CCn1cc2c(n1)C(COCC1CC1)CN(C(=O)c1ccsc1)C2 (configuration not stated)	-10.1
CC(Cn1cccn1)NCCS(=O)(=O)c1ccccc1 (configuration not stated)	-8.75
CC1CCN(CCNC(=O)C2CCN(C(=O)C3CC3)CC2)CC1	-3.28
CS(=O)(=O)NC(=O)c1nnn(-c2ccccc2)c1C1CC1	-5.6
Cc1ccc(C(=O)NCCSCc2cccs2)cn1	12.6
CC1CCN(C)c2ccccc2N1C(=O)c1ccn(C)c(=O)c1 (configuration not stated)	-6.59
COCCNC(=O)c1nnn(Cc2ccccc2)c1OC	-2.5
Cc1ccc(OCC(O)CNC(=O)C2(c3ccc(F)cc3)CC2)cc1 (configuration not stated)	-7.12
CN1CCN(c2cc(Sc3cccs3)nc(N)n2)CC1CCO (configuration not stated)	-7.97
Cc1cc(CN2C[C@H]3CCC[C@@]3(COCC(=O)N3CCCC3)C2)no1	-4.89
CC(C)OCCCNC(=O)CS(=O)(=O)Cc1ccc(Cl)cc1	13
CSCCC(O)C(=O)N1CCCN(Cc2cccnc2)CC1 (configuration not stated)	-9.6
CCc1nc2ccccc2c(=O)n1CC1(O)CCN(CC(=O)OC)CC1	-10.9
COCCOCCNC(=O)C(C)Oc1ccccc1C(F)(F)F (configuration not stated)	-5.94
Cc1ccccc1CC1(C(=O)O)CCCN(c2ncccn2)C1 (configuration not stated)	-7.63
O=C(O)c1cc(/C=C/c2cccc3ccccc23)ncn1	-7.2
COc1cc(C2(C(=O)NC3CCN(CC4CC4)CC3)CC2)ccc1C	-6
CN(Cc1nccn1C)C1CCCN(CCCc2ccccc2)C1 (configuration not stated)	-6.62
COc1ccc(C2CCCN2C(=O)CCNc2ncccn2)cc1 (configuration not stated)	-5.82
O=C(C[S+]([O-])Cc1ccc(F)cc1Cl)N1CCc2sccc2C1 (configuration not stated)	-6.4

SMILES	cytotoxicity at 70.5 h [%]
CN(Cc1nc(-c2cccnc2)no1)C(=O)c1cccn1C	53.7
Cn1ccnc1CN1CCC2(CC(=O)N(c3cncnc3)C2)C1 (configuration not stated)	-14.3
O=C(c1ccno1)N1C[C@@H](F)[C@@H](OCc2nc3ccccc3o2)C1	0.816
COC(=O)CN(Cc1ccccc1C)C(=O)CCCNC(=O)C1CC1	10.1
CC(=O)Nc1nc(CN2CCCC2Cn2cc(C)cn2)cs1 (configuration not stated)	30.3
CC(C)C(=O)NCCC(=O)N1CCN(c2ccccn2)CC1	-4.63
CCOc1cccc2c1OCC(C(=O)NC(C)Cn1cccn1)=C2 (configuration not stated)	16.6
N#Cc1cccnc1Nc1ccc(N2CCC(C(N)=O)CC2)cc1	4.18
O=C(c1ccc(-c2cccs2)cc1F)N1CCN(CCO)CC1	-2.06
CNc1cc2c(nn1)CCN(C(=O)c1ccc3c(c1)CCC3)C2	-4.27
COCC1COCCC12CCN(S(=O)(=O)c1ccc(C)cc1)CC2 (configuration not stated)	-4.01
O=C(CCc1cc2n(n1)CCCNC2)NCCS(=O)(=O)N1CCCC1	21.6
CCc1ccc(C(=O)N2CC[C@](C)(O)C(C)(C)C2)[nH]1	-3.24
Cc1cccc(CN2C[C@@H]3OCCN(S(=O)(=O)N(C)C)[C@@H]3C2)c1	-2.05
COCCn1ccnc1C1CCCN(C(=O)c2cccnc2SC)C1 (configuration not stated)	13
COCCN1CC[C@@H]2OC[C@H](C(=O)N(C)Cc3ccccn3)C[C@@H]2C1	-3.83
CC(C)NC(=O)C1CCN(c2nc3nc[nH]c(=O)c3s2)CC1	-21.7
Cc1ccccc1C(C(=O)N(C)CCc1cnn(C)c1)N(C)C (configuration not stated)	-0.295
CC(=O)N1CC2(CCCCN2Cc2ccc(Cl)cc2)Cc2ccccc21 (configuration not stated)	5.47
